Experimental data published in patent US20110207697A1, “XANTHOHUMOL COMPOSITIONS AND METHODS FOR TREATING SKIN DISEASES OR DISORDERS” (Betal, LLC, priority 2008, published 2011).
In brackets after ≈: the same amount, converted by molar mass. Read-outs that look alike come from different tables or passages of the source.

Experiments:
[1] = Lipophilic oxygen radical absorbance capacity (ORAC-L); settings: lipid soluble antioxidant capacity; expressed as mmol TE/g; — = No activity detected
Source text: Thus the ORAC method has become a widely used method for assessing antioxidant capacity in biological samples and foods. However, because of its inability to measure both hydrophilic and lipophilic antioxidants, the method has its limitations. An ORAC method for lipophilic antioxidants was further developed and validated using fluorescein as the fluorescent probe (Prior et al. 2003 J. Agric. Food Chem. 51: 3273-3279). […] In the present work, the ORAC value is expressed as the sum of values of both the water-soluble and fat-soluble parts. […] Both hydrophilic and lipophilic oxygen radical absorbance capacity (ORAC) assays were carried out at Brunswick Laboratory (Wareham, Mass.) based on the modified ORACfl method reported by Ou et al. (2001 J. Agric. Food Chem. 49: 4619-4626, 2002 J. Agr. Food Chem. 50: 3122-3128). Trolox, a water-soluble vitamin E analog, was used as the calibration standard. The data are expressed as mmole of Trolox equivalents per gram (mmol TE/g). […] Hydroxyl radical ORAC (HOR-AC) is expressed as mmole caffeic acid equivalent per gram (mmol CAE/g). […] The peroxyl nitrite ORAC (NORAC) result is expressed as mmol TE/g. […] Radical-scavenging activity was measured by the change in absorbance at 517 nm with the DPPH result expressed as mmol TE/g. […] The FRAP result is expressed as mmol TE/g (Ou et al. 2002b).

[2] = Water solubility of xanthohumol (HPLC of supernatant); format: physicochemical; settings: thermodynamic from solid, 1 mg xanthohumol per ml water, sonicated 5 minutes
Procedure: Pure xanthohumol (XN), Xanohop A, xanthohumol-gamma cyclodextrin (XN/gCD), and xanthohumol-beta cyclodextrin (XN/bCD) were dispersed in water at a ratio of 1 mg xanthohumol per ml of water. After being sonicated for 5 minutes, the resultant suspensions were centrifuged at 3,000 rpm for 2 minutes or 12,000 rpm for 3 minutes. The supernatants thus formed were collected, diluted (1:10) with methanol, and then injected into HPLC to determine xanthohumol concentrations.

[3] = molecular target: T1, interstitial collagenase (MMP-1) (Homo sapiens, UniProt P03956); test: Anticollagenase assay; format: biochemical; settings: mean of three measurements
T1 construct: host or cells: mammalian cells
T1 sequence (P03956 100-469): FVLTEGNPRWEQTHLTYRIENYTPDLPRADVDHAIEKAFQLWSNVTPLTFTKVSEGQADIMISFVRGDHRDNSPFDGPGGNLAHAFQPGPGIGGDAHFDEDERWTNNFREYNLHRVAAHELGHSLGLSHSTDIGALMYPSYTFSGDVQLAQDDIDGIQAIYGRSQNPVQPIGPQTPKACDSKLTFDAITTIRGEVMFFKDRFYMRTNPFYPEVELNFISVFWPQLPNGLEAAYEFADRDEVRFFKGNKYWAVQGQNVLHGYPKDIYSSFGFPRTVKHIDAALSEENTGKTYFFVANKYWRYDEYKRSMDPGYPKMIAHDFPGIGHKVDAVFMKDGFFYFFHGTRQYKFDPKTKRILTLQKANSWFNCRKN
Procedure: (§1) Human recombinant matrix metalloproteinase-MMP-1) pro-enzyme, expressed in mammalian cells, and human nutrophil MMP-8 pro-enzyme were activated with 4-aminophenylmercuric acetate for 60 min 37 1 C, respectively (Knight et al. 1992 FEBS Lett. 296: 263-266). Hop components and vehicle were preincubated with 5 nM MMP- and 6 nM MMP-8 active enzymes in a modified MOPS buffer, pH 7.2, for 60 minutes at 37 C. The reaction was initiated by addition of […] Mca-Pro-Leu-Gly-Leu-Dpa-Ala-Arg for another 120-minute incubation period. The determination of the amount of Mca-Pro-Leu-Gly formed was read spectrofluorimetrically at 340/400 nm. Tissue inhibitors of metalloproteinase TIMP-1 and TIMP-2 were used as positive controls (Olson et 1997 J. Biol. Chem. 272: 29975-29983).

[4] = molecular target: T2, neutrophil collagenase (MMP-8) (Homo sapiens, UniProt P22894); test: Anticollagenase assay; format: biochemical; settings: mean of three measurements
T2 construct: from tissue; host or cells: human neutrophils
T2 sequence (P22894 101-467): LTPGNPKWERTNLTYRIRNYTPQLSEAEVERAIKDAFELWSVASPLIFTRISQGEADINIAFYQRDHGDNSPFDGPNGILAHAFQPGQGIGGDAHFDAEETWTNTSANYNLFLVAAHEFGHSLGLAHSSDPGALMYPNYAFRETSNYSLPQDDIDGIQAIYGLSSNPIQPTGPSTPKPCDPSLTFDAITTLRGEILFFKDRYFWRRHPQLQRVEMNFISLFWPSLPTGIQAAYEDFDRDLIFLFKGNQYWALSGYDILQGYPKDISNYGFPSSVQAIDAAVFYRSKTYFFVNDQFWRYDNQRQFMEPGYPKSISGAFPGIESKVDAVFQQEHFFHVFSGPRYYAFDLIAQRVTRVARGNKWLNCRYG
Procedure: as §1

[5] = FRAP ferric reducing antioxidative power; settings: FIG. 2 radar chart
Procedure: [table] […] The SOAC scores are not included in this figure; ORAC values used are the sum of lipophilic and hydrophilic results. For each assay category, scaling was made logarithmic so that the plot on the chart resembles the associated rating. […] The larger the spatial area, the higher the overall antioxidative capacity. […] Both hydrophilic and lipophilic oxygen radical absorbance capacity (ORAC) assays were carried out at Brunswick Laboratory (Wareham, Mass.) based on the modified ORACfl method reported by Ou et al. (2001 J. Agric. Food Chem. 49: 4619-4626, 2002 J. Agr. Food Chem. 50: 3122-3128). Trolox, a water-soluble vitamin E analog, was used as the calibration standard. The data are expressed as mmole of Trolox equivalents per gram (mmol TE/g). The acceptable precision of the ORAC assay is a 15% relative standard deviation. […] Hydroxyl radical ORAC (HOR-AC) is expressed as mmole caffeic acid equivalent per gram (mmol CAE/g). […] The peroxyl nitrite ORAC (NORAC) result is expressed as mmol TE/g. Alpha-tocopherol (vitamin E) was used as the calibration standard, and the singlet oxygen absorbance capacity (SOAC) result is expressed as mmole a-tocopherol equivalent (mmol VtE) per gram (Aubry et al. 1989). […] Radical-scavenging activity was measured by the change in absorbance at 517 nm with the DPPH result expressed as mmol TE/g. […] The FRAP result is expressed as mmol TE/g (Ou et al. 2002b). […]

solubility at 5 min ([2]; centrifuged 3,000 rpm 2 minutes, read-out: Water-solubility of XN (3,000 rpm)): 4 µg/mL (≈ 11.3 µM)
solubility at 5 min ([2]; centrifuged 12,000 rpm 3 minutes, read-out: Water-solubility of XN (12,000 rpm)): 2 µg/mL (≈ 5.64 µM)
Inhibitory ratio (%) MMP-1 ([3]; 10 μg/mL): 25%
Inhibitory ratio (%) MMP-1 ([3]; 30 μg/mL): 65%
Inhibitory ratio (%) MMP-1 ([3]; 100 μg/mL): 91%
Inhibitory ratio (%) MMP-8 ([4]; 10 μg/mL): 31%
Inhibitory ratio (%) MMP-8 ([4]; 30 μg/mL): 70%
Inhibitory ratio (%) MMP-8 ([4]; 100 μg/mL): 99%
SMILES: COc1cc(O)c(CC=C(C)C)c(O)c1C(=O)/C=C/c1ccc(O)cc1 [Xanthohumol (7), 3′-[3,3-dimethylallyl]-2′,4′,4-trihydroxy-6′-methoxychalcone]
ORAC-L (Trolox equivalent) [1]: 2.1 Trolox equivalent
quenching activity against ferric ion (FRAP), rank among hop components [5]: highest quenching activity
